Laboratory results reported in PMC9675574 (JCI Insight, 2022).
Where two headings read alike, the source gives them in different places.

Columns and labels:
[1] = target: T1, mouse trypsin isoform T20 (anionic trypsin) (Mus musculus, UniProt P07146); test: Competitive inhibition kinetics of trypsin, GPR-pNA substrate; assay type: biochemical; settings: for kcat / Km: GPR-pNA, 24°C; for Ki: mean ± SD, n = 3
T1 construct: made in house; host or cells: Escherichia coli BL21(DE3)
T1 sequence (P07146 24-246): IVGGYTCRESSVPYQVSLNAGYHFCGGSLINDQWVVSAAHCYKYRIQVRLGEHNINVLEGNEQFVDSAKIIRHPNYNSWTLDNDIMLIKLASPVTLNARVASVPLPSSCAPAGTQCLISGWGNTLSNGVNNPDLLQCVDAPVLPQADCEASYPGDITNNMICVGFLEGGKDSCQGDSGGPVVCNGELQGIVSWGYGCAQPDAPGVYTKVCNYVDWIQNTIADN
Protocol: (§1) Recombinant human and mouse trypsinogens were expressed in Escherichia coli BL21(DE3) (Invitrogen), refolded in vitro, and purified by ecotin affinity chromatography (Pharmacia FPLC), according to published protocols ([60], [63], [64]). Sulfated human trypsinogens were purified from archived samples of human pancreatic juice, as described previously, with minor modifications ([65], [66]). Briefly, 50 mg freeze-dried pancreatic juice was dissolved in 2 mL 10 mM HCl, clarified by centrifugation (21,000g, 5 minutes, 4°C), and loaded onto a MonoQ 5/50 GL column equilibrated with 20 mM Tris-HCl (pH 8.0). Proteins were eluted with a 0–0.5 M NaCl gradient at 1 mL/min flow rate for 30 minutes. The fractions containing the cationic and anionic trypsinogens were further purified with ecotin affinity chromatography. The concentration of trypsinogen preparations was estimated from their UV absorbance at 280 nm using the extinction coefficients reported previously for mouse trypsinogens ([64]) and 37,525, 38,890, and 41,535/M/cm for human cationic trypsinogen (PRSS1), anionic trypsinogen (PRSS2), and mesotrypsinogen (PRSS3), respectively. To activate trypsinogen to trypsin, approximately 1 μM solution was incubated at 37°C with 28.2 ng/mL human enterokinase (final concentration) in 0.1 M Tris-HCl (pH 8.0), 10 mM CaCl2, and 0.05% Tween 20 for 1 hour. The activation reaction was followed by measuring trypsin activity: 2 μL trypsin was diluted in 48 μL assay buffer [0.1 M Tris-HCl (pH 8.0), 1 mM CaCl2, and 0.05% Tween 20], and 150 μL of 200 μM GPR-pNA trypsin substrate (in assay buffer) was added. Substrate cleavage resulting in the release of the yellow p-nitroaniline was monitored for 1 minute in a Spectramax Plus 384 microplate reader at 405 nm.
(§2) Michaelis-Menten kinetic parameters of trypsin isoforms were determined with the chromogenic substrate GPR-pNA at 24°C. The trypsin concentration was 1 nM and the substrate concentration was varied typically between 1.56 and 200 μM in a final volume of 200 μL assay buffer. The substrate concentration range was 3.1–400 μM for mouse trypsin isoform T7 and 0.4–50 μM for mouse trypsin isoform T20. Km and kcat values were calculated from hyperbolic fits to plots of reaction velocity versus substrate concentration.
(§3) Michaelis-Menten kinetic parameters were then measured after adding 100 μL trypsin substrate, as described above. […] To determine the Ki, the Km values were plotted as a function of the inhibitor concentration, and the Ki was calculated by dividing the y axis intercept with the slope of the linear fit. This value corresponds to the negative of the x axis intercept. Alternatively, the substrate saturation curves obtained in the absence and presence of the increasing inhibitor concentrations were globally fitted to the competitive inhibition equation y = vmax × (x/[KmObs+ x]), where y is the reaction velocity, vmax is the maximal velocity, x is the substrate concentration, and KmObs = Km × (1 + [I]/Ki), where [I] is the inhibitor concentration. Experiments were performed 3 times and each experiment was analyzed separately. […] Kinetic analysis was performed with the Prism 8 program (GraphPad).

[2] = target: T2, human trypsin isoform PRSS1 (cationic trypsin), recombinant (Homo sapiens, UniProt P07477); test: as above; assay type: biochemical; settings: for kcat / Km: GPR-pNA, 24°C; for Ki: mean ± SD, n = 3
T2 construct: made in house; host or cells: Escherichia coli BL21(DE3)
Protocol: as §1, §2, §3

[3] = target: T3, sulfated human trypsin PRSS2-SO4 purified from pancreatic juice (Homo sapiens, UniProt P07478); test: as above; assay type: biochemical; settings: for kcat / Km: GPR-pNA, 24°C; for Ki: mean ± SD, n = 3
T3 construct: from tissue; host or cells: human pancreatic juice
T3 sequence (P07478 24-247): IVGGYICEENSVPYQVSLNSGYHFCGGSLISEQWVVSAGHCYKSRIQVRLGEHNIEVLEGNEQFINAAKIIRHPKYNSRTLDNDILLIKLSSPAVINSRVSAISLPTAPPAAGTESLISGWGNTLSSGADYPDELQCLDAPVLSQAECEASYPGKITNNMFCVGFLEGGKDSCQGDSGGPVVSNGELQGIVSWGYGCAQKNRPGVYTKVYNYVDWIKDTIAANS
Protocol: as §1, §2, §3

[4] = target: T4, sulfated human trypsin PRSS1-SO4 purified from pancreatic juice (Homo sapiens, UniProt P07477); test: as above; assay type: biochemical; settings: for kcat / Km: GPR-pNA, 24°C; for Ki: mean ± SD, n = 3
T4 construct: from tissue; host or cells: human pancreatic juice
Protocol: as §1, §2, §3

[5] = target: T5, human trypsin isoform PRSS2 (anionic trypsin), recombinant (Homo sapiens, UniProt P07478); test: as above; assay type: biochemical; settings: for kcat / Km: GPR-pNA, 24°C; for Ki: mean ± SD, n = 3
T5 construct: made in house; host or cells: Escherichia coli BL21(DE3)
T5 sequence (P07478 24-247): as above
Protocol: as §1, §2, §3

[6] = target: T6, human trypsin isoform PRSS3 (mesotrypsin) (Homo sapiens, UniProt P35030); test: as above; assay type: biochemical; settings: for kcat: GPR-pNA, 24°C; for Ki: mean ± SD, n = 3
T6 construct: made in house; host or cells: Escherichia coli BL21(DE3)
T6 sequence (P35030 81-304 limits assumed): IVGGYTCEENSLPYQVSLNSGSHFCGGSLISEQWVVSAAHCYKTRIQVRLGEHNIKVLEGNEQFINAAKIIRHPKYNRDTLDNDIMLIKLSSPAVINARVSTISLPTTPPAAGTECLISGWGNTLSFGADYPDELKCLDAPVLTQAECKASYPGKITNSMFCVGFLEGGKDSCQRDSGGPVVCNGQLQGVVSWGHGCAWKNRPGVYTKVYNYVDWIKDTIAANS
Protocol: as §1, §2, §3

[7] = human volunteers, cited from earlier work

For `N=C(N)c1ccccc1` [benzamidine], the kcat ([1]; 12.5 μM benzamidine) was 65 ± 1 per second, the kcat ([1]; 25 μM benzamidine) was 62.1 ± 1.8 per second and the kcat ([1]; 37.5 μM benzamidine) was 64.7 ± 2.1 per second. It also gave a kcat ([1]; 50 μM benzamidine) of 65.6 ± 2.1 per second, a Ki ([1]; Ki benzamidine, Global fit) of 7.6 ± 0.5 µM and a Ki ([1]; Ki benzamidine, Individual fit) of 6.9 ± 1.1 µM. It also gave a kcat ([2]; 25 μM benzamidine) of 134.8 ± 1.7 per second, a kcat ([2]; 50 μM benzamidine) of 121 ± 3.3 per second and a kcat ([2]; 75 μM benzamidine) of 136.3 ± 9.2 per second. For the same molecule, the kcat ([2]; 100 μM benzamidine) was 143.2 ± 8.1 per second, the Ki ([2]; Ki benzamidine, Global fit) was 22.5 ± 4 µM and the Ki ([2]; Ki benzamidine, Individual fit) was 15.7 ± 4.7 µM. The kcat ([3]; 12.5 μM benzamidine) was 64.8 ± 1.6 per second, the kcat ([3]; 25 μM benzamidine) was 64.3 ± 1.4 per second and the kcat ([3]; 37.5 μM benzamidine) was 64.5 ± 1.5 per second. It also gave a kcat ([3]; 50 μM benzamidine) of 69.3 ± 0.3 per second, a Ki ([3]; Ki benzamidine, Global fit) of 4.2 ± 0.7 µM and a Ki ([3]; Ki benzamidine, Individual fit) of 3.3 ± 0.5 µM. The kcat ([4]; 12.5 μM benzamidine) was 104.1 ± 2.8 per second, the kcat ([4]; 25 μM benzamidine) was 112.1 ± 4.9 per second and the kcat ([4]; 37.5 μM benzamidine) was 108.4 ± 5.3 per second. For the same molecule, the kcat ([4]; 50 μM benzamidine) was 113.6 ± 7.2 per second, the Ki ([4]; Ki benzamidine, Global fit) was 10.5 ± 0.9 µM and the Ki ([4]; Ki benzamidine, Individual fit) was 8.3 ± 2.2 µM. It also gave a kcat ([5]; 25 μM benzamidine) of 78.7 ± 1.7 per second, a kcat ([5]; 50 μM benzamidine) of 78.4 ± 1.8 per second and a kcat ([5]; 75 μM benzamidine) of 82.1 ± 2.4 per second. For the same molecule, the kcat ([5]; 100 μM benzamidine) was 78.3 ± 4.5 per second, the Ki ([5]; Ki benzamidine, Global fit) was 8.9 ± 0.7 µM and the Ki ([5]; Ki benzamidine, Individual fit) was 8.6 ± 2.2 µM. The kcat ([6]; 25 μM benzamidine) was 211.9 ± 8.6 per second, the kcat ([6]; 50 μM benzamidine) was 214.2 ± 4.7 per second and the kcat ([6]; 75 μM benzamidine) was 201.3 ± 8 per second. For the same molecule, the kcat ([6]; 100 μM benzamidine) was 205.7 ± 6.3 per second, the Ki ([6]; Ki benzamidine, Global fit) was 13.3 ± 0.8 µM and the Ki ([6]; Ki benzamidine, Individual fit) was 15.5 ± 2.3 µM.

In the case of `[H]/N=C(/N)c1ccc(NCc2nc3cc(C(=O)N(CCC(=O)O)c4ccccn4)ccc3n2C)cc1` [dabigatran], the “steady-state plasma levels of dabigatran” value ([7]; 100 mg dabigatran etexilate 3 times daily) is given as “around 50 ng/mL”, the “steady-state plasma levels of dabigatran” value ([7]; 200 mg dabigatran etexilate 3 times daily) is given as ~100 ng/mL and the Km ([1]; 50 nM dabigatran) is given as 9.5 ± 1.3 µM. It also gave a kcat ([1]; 50 nM dabigatran) of 52 ± 4 per second, a Km ([1]; 100 nM dabigatran) of 19.5 ± 0.5 µM and a kcat ([1]; 100 nM dabigatran) of 51.1 ± 1.7 per second. It also gave a Km ([1]; 150 nM dabigatran) of 22.5 ± 2.5 µM, a kcat ([1]; 150 nM dabigatran) of 48.7 ± 3.3 per second and a Km ([1]; 200 nM dabigatran) of 28.5 ± 2.2 µM. For the same molecule, the kcat ([1]; 200 nM dabigatran) was 50 ± 6.3 per second, the Ki ([1]; Ki dabigatran, Global fit) was 0.0226 ± 0.0007 µM and the Km ([2]; 25 nM dabigatran) was 31.3 ± 3.6 µM. It also gave a kcat ([2]; 25 nM dabigatran) of 90.8 ± 2.8 per second, a Km ([2]; 50 nM dabigatran) of 50.2 ± 2.5 µM and a kcat ([2]; 50 nM dabigatran) of 91.6 ± 4.8 per second. For the same molecule, the Km ([2]; 75 nM dabigatran) was 71.1 ± 4.2 µM, the kcat ([2]; 75 nM dabigatran) was 95 ± 2.3 per second and the Km ([2]; 100 nM dabigatran) was 88.7 ± 3.1 µM. The kcat ([2]; 100 nM dabigatran) was 99.8 ± 3.3 per second, the Ki ([2]; Ki dabigatran, Global fit) was 0.0282 ± 0.0045 µM and the Ki ([2]; Ki dabigatran, Individual fit) was 0.021 ± 0.0023 µM. It also gave a Km ([3]; 25 nM dabigatran) of 13 ± 0.5 µM, a kcat ([3]; 25 nM dabigatran) of 63.4 ± 0.4 per second and a Km ([3]; 50 nM dabigatran) of 23.5 ± 1.3 µM. It also gave a kcat ([3]; 50 nM dabigatran) of 66.8 ± 1.6 per second, a Km ([3]; 75 nM dabigatran) of 31.5 ± 0.4 µM and a kcat ([3]; 75 nM dabigatran) of 63.8 ± 0.9 per second. It also gave a Km ([3]; 100 nM dabigatran) of 42.4 ± 3.5 µM, a kcat ([3]; 100 nM dabigatran) of 67.2 ± 1.9 per second and a Ki ([3]; Ki dabigatran, Global fit) of 0.0103 ± 0.0005 µM. For the same molecule, the Ki ([3]; Ki dabigatran, Individual fit) was 0.01 ± 0.0032 µM, the Km ([4]; 25 nM dabigatran) was 21.4 ± 1.5 µM and the kcat ([4]; 25 nM dabigatran) was 101 ± 2.3 per second. The Km ([4]; 50 nM dabigatran) was 32.7 ± 3 µM, the kcat ([4]; 50 nM dabigatran) was 105.5 ± 5.1 per second and the Km ([4]; 75 nM dabigatran) was 42.8 ± 7.8 µM. The kcat ([4]; 75 nM dabigatran) was 103.2 ± 4.2 per second, the Km ([4]; 100 nM dabigatran) was 57 ± 2.1 µM and the kcat ([4]; 100 nM dabigatran) was 104.7 ± 2.1 per second. It also gave a Ki ([4]; Ki dabigatran, Global fit) of 0.0233 ± 0.002 µM, a Km ([5]; 25 nM dabigatran) of 23 ± 1.3 µM and a kcat ([5]; 25 nM dabigatran) of 90.6 ± 2.6 per second. For the same molecule, the Km ([5]; 50 nM dabigatran) was 37.6 ± 0.6 µM, the kcat ([5]; 50 nM dabigatran) was 89.1 ± 1.7 per second and the Km ([5]; 75 nM dabigatran) was 46.8 ± 1.5 µM. The kcat ([5]; 75 nM dabigatran) was 90.2 ± 2.3 per second, the Km ([5]; 100 nM dabigatran) was 61.1 ± 6.1 µM and the kcat ([5]; 100 nM dabigatran) was 87.5 ± 4.4 per second. The Ki ([5]; Ki dabigatran, Global fit) was 0.0141 ± 0.0011 µM, the Ki ([5]; Ki dabigatran, Individual fit) was 0.0179 ± 0.0033 µM and the kcat ([6]; 50 nM dabigatran) was 214.6 ± 4.9 per second. It also gave a kcat ([6]; 100 nM dabigatran) of 215.5 ± 4.6 per second, a kcat ([6]; 150 nM dabigatran) of 217.5 ± 10.8 per second and a kcat ([6]; 200 nM dabigatran) of 220.5 ± 4.1 per second. The Ki ([6]; Ki dabigatran, Global fit) was 0.0516 ± 0.0021 µM and the Ki ([6]; Ki dabigatran, Individual fit) was 0.0351 ± 0.0024 µM.
